We go through 8 molecules from PubChem BioAssay (NCI).

Test systems include DU-145 prostate; M14 melanoma; HOP-92 NSCLC; SF-539 CNS; OVCAR-5 ovarian; SK-MEL-5 melanoma; RPMI-8226 leukemia; RXF 393 renal; HCT-116 colon; MALME-3M melanoma; MCF7 breast; BT-549 breast; LOX IMVI melanoma; SK-MEL-28 melanoma; TK-10 renal; UACC-257 melanoma; U251 CNS; OVCAR-3 ovarian; HOP-62 NSCLC; MDA-MB-231 breast.
Common to all, as to test: NCI anticancer screen, dose series, 48 h

SMILES strings stand for the structures.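 Each compound was tested at five concentrations against cells in 96-well plates for 48 hours. The concentration for full growth arrest is given as TGI.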 Where a SMILES comes first, the peptide text is derived from it. The star is where a group is joined. Cbz = O=C(OCc1ccccc1)*; NHNH2 = NN*

As to `O=C(N/N=C/c1ccco1)c1cc(I)cc(I)c1O`, the TGI is greater than 50 µM in the assay on DU-145 prostate; greater than 50 µM in the assay with M14 melanoma; greater than 50 µM in the assay with HOP-92 NSCLC; 26 µM in the assay with SF-539 CNS; 40.9 µM with OVCAR-5 ovarian; 34.4 µM in the assay on SK-MEL-5 melanoma. The TGI was 43 µM in the assay with RPMI-8226 leukemia; greater than 50 µM with RXF 393 renal; greater than 50 µM in the assay on HCT-116 colon; greater than 50 µM in the assay on MALME-3M melanoma; greater than 50 µM with MCF7 breast; greater than 50 µM in the assay with BT-549 breast. Moreover, the TGI in the assay with LOX IMVI melanoma and in the assay on SK-MEL-28 melanoma was greater than 50 µM in each case.
On to `COc1c(C)c2nc3ccccc3[nH]c2c2c(=O)ccnc12`, for which the TGI in the assay on DU-145 prostate, in the assay with TK-10 renal, with M14 melanoma, with HOP-92 NSCLC, in the assay with SF-539 CNS and in the assay with OVCAR-5 ovarian was greater than 100 µM each time. Also, the TGI with SK-MEL-5 melanoma is greater than 100 µM; with RPMI-8226 leukemia, greater than 100 µM; in the assay with RXF 393 renal it was 71.7 µM; with HCT-116 colon, greater than 100 µM; in the assay with MALME-3M melanoma, greater than 100 µM; with MCF7 breast, greater than 100 µM. The TGI in the assay on LOX IMVI melanoma, with UACC-257 melanoma, in the assay with U251 CNS, in the assay on OVCAR-3 ovarian, with SK-MEL-28 melanoma and in the assay on HOP-62 NSCLC was greater than 100 µM each time. Besides, the TGI in the assay with MDA-MB-231 breast was greater than 100 µM.
`CCOC(=O)C(CC#Cc1ccc(C#CCC(NC(C)=O)C(=O)OCC)cc1)NC(C)=O` (configuration not stated): the TGI with DU-145 prostate, in the assay with TK-10 renal, with M14 melanoma, in the assay on SF-539 CNS, in the assay on OVCAR-5 ovarian and in the assay on SK-MEL-5 melanoma was greater than 100 µM throughout. Further, the TGI in the assay on RPMI-8226 leukemia, with RXF 393 renal, with HCT-116 colon, in the assay on MALME-3M melanoma, with MCF7 breast and in the assay with LOX IMVI melanoma was greater than 100 µM throughout. The TGI in the assay with UACC-257 melanoma, with OVCAR-3 ovarian, with SK-MEL-28 melanoma, in the assay on HOP-62 NSCLC and with MDA-MB-231 breast was greater than 100 µM in each case.
As for `COc1ccc(-c2c(C#N)c(N)nc3c2CCS(=O)(=O)c2ccccc2-3)cc1`, the TGI with DU-145 prostate, in the assay with TK-10 renal, with HOP-92 NSCLC, in the assay on SK-MEL-5 melanoma, in the assay on HCT-116 colon and with MALME-3M melanoma was greater than 100 µM throughout. The TGI in the assay on BT-549 breast, in the assay with LOX IMVI melanoma, in the assay with UACC-257 melanoma, in the assay with U251 CNS, with SK-MEL-28 melanoma and in the assay on MDA-MB-231 breast was greater than 100 µM throughout.
In the case of `O=C(Cc1ccc([N+](=O)[O-])cc1)OCC#CCOC(=O)Cc1ccc([N+](=O)[O-])cc1`, the TGI in the assay with TK-10 renal, in the assay with M14 melanoma, with HOP-92 NSCLC, in the assay on SF-539 CNS, in the assay on OVCAR-5 ovarian and in the assay on SK-MEL-5 melanoma was greater than 10 µM in each case. Besides, the TGI in the assay with RXF 393 renal, in the assay on MALME-3M melanoma, with MCF7 breast, in the assay on BT-549 breast, with LOX IMVI melanoma and with UACC-257 melanoma was greater than 10 µM throughout. Also, the TGI with U251 CNS, in the assay with OVCAR-3 ovarian and in the assay with MDA-MB-231 breast was greater than 10 µM each time.
For the molecule `CCOC(=O)/C(C#N)=N\Nc1ccc(-n2c(C)nc3ccccc3c2=O)cc1`, the TGI in the assay on DU-145 prostate, in the assay with TK-10 renal, with M14 melanoma, in the assay with HOP-92 NSCLC, in the assay on SF-539 CNS and with OVCAR-5 ovarian was greater than 100 µM in each case. For the same molecule, the TGI in the assay on SK-MEL-5 melanoma was 36.6 µM; in the assay on RPMI-8226 leukemia it was greater than 100 µM; in the assay on HCT-116 colon it was greater than 100 µM; in the assay on MCF7 breast it was greater than 100 µM; in the assay with BT-549 breast it was greater than 100 µM; in the assay on LOX IMVI melanoma, greater than 100 µM. Moreover, the TGI in the assay on UACC-257 melanoma was greater than 100 µM; with U251 CNS it was greater than 100 µM; in the assay on OVCAR-3 ovarian, 82.4 µM; in the assay on SK-MEL-28 melanoma, greater than 100 µM; in the assay with HOP-62 NSCLC, greater than 100 µM; in the assay with MDA-MB-231 breast it was greater than 100 µM.
`C=CCOCCCCC(C(C)=O)C(=O)OC` (configuration not stated): the TGI in the assay on DU-145 prostate, with TK-10 renal, with M14 melanoma, in the assay on HOP-92 NSCLC, with SF-539 CNS and with OVCAR-5 ovarian was greater than 100 µM in each case. Also, the TGI with SK-MEL-5 melanoma, in the assay with RPMI-8226 leukemia, in the assay with RXF 393 renal, in the assay on HCT-116 colon, with MALME-3M melanoma and in the assay with LOX IMVI melanoma was greater than 100 µM throughout. For the same molecule, the TGI in the assay with UACC-257 melanoma, in the assay with U251 CNS, in the assay on OVCAR-3 ovarian and in the assay with SK-MEL-28 melanoma was greater than 100 µM in each case.
Consider `COC(=O)CC(NC(=O)OCc1ccccc1)C(=O)NC(CC(=O)OC)C(=O)NC(CC(=O)OC)C(=O)NC(CC(=O)OC)C(=O)NC(CC(=O)OC)C(=O)NC(CC(=O)OC)C(=O)NN` (configuration not stated) (Cbz-D(OMe)D(OMe)D(OMe)D(OMe)D(OMe)D(OMe)-NHNH2; configuration not given here), for which the TGI with TK-10 renal, in the assay on M14 melanoma, in the assay on HOP-92 NSCLC, in the assay on SF-539 CNS, with OVCAR-5 ovarian and in the assay on SK-MEL-5 melanoma was greater than 100 µM throughout. Also, the TGI in the assay on RPMI-8226 leukemia, in the assay with HCT-116 colon, in the assay on MCF7 breast, in the assay with BT-549 breast, in the assay with LOX IMVI melanoma and in the assay on UACC-257 melanoma was greater than 100 µM each time. Moreover, the TGI with U251 CNS, in the assay with SK-MEL-28 melanoma, in the assay with HOP-62 NSCLC and in the assay with MDA-MB-231 breast was greater than 100 µM in each case.
